The results in this text go back to patent publication US20190017029A1, “Generation of Expandable Cardiovascular Progenitor Cells” (The J. David Gladstone Institutes, a testament trust …, priority 2016, published 2019).

What all share (format): cell-based, mouse
In one experiment the test system is ieCPC-CMs. The experiment can be described thus: Beating frequency and Ca2+ transients in ieCPC-CMs, pharmacological studies. The procedure: Contracting cardiomyocytes derived from ieCPCs (ieCPC-CMs) were dispersed by first treating cells with Collagenase B for 5-10 min and then with Accutase for 5 min. Dissociated cells were replated onto matrigel-coated coverslips (Warner Instruments). After visible beating was reconfirmed, the coverslips were loaded with the Ca^2+-sensitive fluorescent indicator Fluo-4 (see below), and then placed in a superfusion bath (Warner Instruments) on a Nikon TiS inverted microscope equipped with a microfluorometer (lonOptix). Superfusion solutions were warmed to 30° C. with a superfusion system and heated perfusion pencil (ValveLink, AutoMate Scientific).
The ieCPC-CMs on coverslips were loaded with Fluo-4 AM in a 1:10 mixture of the indicator dissolved in dry dimethyl sulfoxide at 5 mM, plus Powerload concentrate (Life Technologies). This mixture was diluted 100-fold into extracellular Tyrode's solution and substituted for culture medium in dishes containing coverslips (final indicator concentration, 5 μM). […] Fluo-4 fluorescence transients were recorded with a standard filter set with excitation and emission centered on 480 nm and 535 nm, respectively (Chroma Technology).
Fluorescence was obtained from contracting cells plus a cell-free border using a cell-framing adaptor (IonOptix). Background fluorescence, recorded after removing the cell(s) from the field of view, was subtracted from all recordings. […] Background-corrected fluorescence transients were expressed relative to the diastolic fluorescence between spontaneous APs and were considered to reflect underlying changes in intracellular Ca^2+ concentration. Unless stated, reagents were from Sigma Chem. Co. Pharmacological studies were conducted on the spontaneous fluorescence transients of non-patch-clamped myocytes, and, to maximize coverslip usage, pharmacological agents were applied locally (only to the cell or cluster of interest) with the perfusion pencil.

The next experiment has as its system ieCPCs. The experiment can be described thus: Cardiac (CM) differentiation of ieCPCs, cTnT expression. Particulars: 20 ng/ml BMP4 or 5 μM IWP2 versus basal differentiation medium. On the procedure:
For cardiac differentiation, ieCPCs were passaged onto 96-well matrigel-coated plates at a density of […] cells/cm^2 and cultured in serum-free differentiation (SFD) medium for 10 days. IWP2 (5 μM) was added to SFD medium during the first six days to increase the yield of cardiomyocytes (CMs) in the functional characterization assays.
Differentiation efficiency of each cell type was calculated with qPCR, flow cytometry, and/or an In Cell Analyzer 2000 (General Electric Healthcare).
After washing cells three times with PBS, the cells were incubated with isotype-matched Alexa Fluorescence-conjugated secondary antibodies (Invitrogen) for 1 hour at room temperature. […] The expression of cTnT (measured by multiplying staining intensity and area) and Isl1 or α-SMA (percentage in total cells) were monitored and analyzed by an IN Cell Analyzer 2000.
To detect intracellular antigens, dissociated cells were fixed and permeabilized with a BD Cytofix/Cytoperm™ Fixation/Permeabilization Kit (BD Biosciences), and then incubated with antibodies for cTnT (MS-295-P1 Thermo Scientific; 1:200) and α-SMA (A-2547, Sigma-Aldrich; 1:200) at 4° C. overnight. After three washes, cells were incubated with isotype-matched Alexa Fluorescence-conjugated secondary antibodies (Invitrogen) for 1 hour at room temperature and detected by an LSR II Flow Cytometer (BD Biosciences).

The test system of the next experiment is Flk-1^+/PdgfR-α^+ cells. The experiment can be described thus: Flow cytometry of Flk-1+/PdgfR-α+ cells during CASD cardiac reprogramming of 2nd MEFs treated with BACS. Particulars: NU6140 4 μM along with BACS from day 8; day 14. The procedure: A Cell-Activation and Signaling-Directed (CASD) system-based cardiac reprogramming was conducted using methods described by Efe et al. (2011). Briefly, 2nd MEFs at passage 3 were seeded onto geltrex (Gibco)-coated plates at a density of 2.5×10^4 cells/well of a 12-well plate in MEF medium (day −2). Doxycycline (DOX; 2 μg/ml, Sigma-Aldrich) was added into the medium one day later (day −1) and the cells were cultured for another day. Medium was then changed to reprogramming medium (knockout DMEM supplemented with 5% knockout serum replacement (KSR), 15% embryonic stem cell (ESC)-qualified FBS, 1× Glutamax, 1×NEAA, 0.1 mM β-mercaptoethanol (β-ME), 1% ESC-qualified nucleosides (Millipore), 0.5 μM Jak inhibitor 1 (JI1; Millipore), and 2 μg/ml DOX) at day 0. This medium was renewed every 2 days. […]
On day 8, the medium was switched to ieCPC basal medium (Advanced DMEM/F12: Neural basal (1:1) supplemented with 1×N2, 1×B27 without Vitamin A, 1× Glutamax, 1×NEAA, 0.05% bovine serum albumin (BSA), and 0.1 mM β-ME) supplemented with BACS (5 ng/ml BMP4, 10 ng/ml Activin A, 3 μM CHIR99021, and 2 μM SU5402 (Tocris Bioscience)). JI1 (0.5 μM) was included to suppress the establishment of pluripotency until the cells were ready for purification at day 13. […]
(In flow cytometry, cells or beads pass a laser one at a time.)

The next experiment deals with ieCPC-SMCs. The experiment can be described thus: Contractile assay of smooth muscle cells in vitro. Particulars: 100 μM carbachol; seen in primary SMCs, not in undifferentiated ieCPCs. On the procedure:
ieCPCs, ieCPC-SMCs, and primary SMCs were treated with carbachol (100 μM, Sigma-Aldrich) and monitored with a Zeiss Axio Observer microscope in a time-lapse manner at 10-minute intervals for 1 hour. Cell-surface areas were then calculated with ImageJ software.

On to `CC(C)NCC(O)c1ccc(O)c(O)c1` (stereo not shown) [isoproterenol], for which the “frequency of cell contraction and spontaneous Ca2+ transients” value with ieCPC-CMs (1 μM isoproterenol) is “significantly increased”.

Regarding `Cc1ccc2nc(NC(=O)CSc3nc4c(c(=O)n3-c3ccccc3)SCC4)sc2c1` [IWP2], in the experiment on ieCPCs, the “cardiac differentiation of ieCPCs (cTnT)” value is “dramatically enhanced”.

`CCN(CC)C(=O)c1ccc(Nc2nc(OCC3CCCCC3)c3[nH]cnc3n2)cc1` [NU6140]: the “ratio of Flk-1+/PdgfR-α+ cells” value in the experiment with Flk-1^+/PdgfR-α^+ cells is listed as “dramatically decreased”.

As for `C[N+](C)(C)CCOC(N)=O` [carbachol], the “effect on the isoproterenol-induced increase of frequency” value with ieCPC-CMs (10 μM carbachol) is on record as “blocked”. Further, in the experiment with ieCPC-SMCs, the “contraction of ieCPC-SMCs” value was “induced contraction”.

For the molecule `Cn1c(=O)c2c(ncn2C)n(C)c1=O` [caffeine], the “Ca2+ transients (release from sarcoplasmic reticulum)” value in the experiment on ieCPC-CMs (10 mM caffeine) is listed as “elicited large Ca^2+ transients”.

B1: BMP4: member of the group of bone morphogenic proteins and a ventral mesoderm inducer (protein, UniProt P12644 293-408, looked up)
Bone morphogenetic protein 4: SPKHHSQRARKKNKNCRRHSLYVDFSDVGWNDWIVAPPGYQAFYCHGDCPFPLADHLNSTNHAIVQTLVNSVNSSIPKACCVPTELSAISMLYLDEYDKVVLKNYQEMVVEGCGCR
For the molecule B1, the “cardiac differentiation of ieCPCs (cTnT)” value with ieCPCs was “significantly impaired”.
